# Tests used:
# DNA-PK(h) = DNA-PK(h) (Homo sapiens, UniProt P78527); assay: Evaluation of inhibitory activity against DNA-PK (HTRF kinase assay, GST-cMyc-p53 substrate); assay type: biochemical; conditions: for inhibition at 0.01 µM: compound concentration 0.01 μM, read-out: EXP_VALUE(% Inhibition) DNA-PK(h) 0.01 μM
# Method in brief: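 p53 Ser15 phosphorylation by human DNA-PK was measured by time-resolved FRET ratio (665/620 nm ×10000) using Eu-labelled anti-phospho-Ser15 and d2 anti-GST antibodies. Substrate GST-cMyc-p53 at 50 μM; Mg/ATP-initiated, 30 min at room temperature, EDTA stop.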
# [1] = target: PI3K-δ (PI3K(p1108/p857) (h)) (Homo sapiens, UniProt O00329); assay: Evaluation of inhibitory activity against PI3K-δ (HTRF kinase assay); assay type: biochemical; conditions: for inhibition at 0.01 µM: compound concentration 0.01 μM, read-out: EXP_VALUE(% Inhibition) PI3K-δ 0.01 μM
# PI3K-δ (PI3K(p1108/p857) (h)), sequence (O00329 whole entry, the tested form may be a part): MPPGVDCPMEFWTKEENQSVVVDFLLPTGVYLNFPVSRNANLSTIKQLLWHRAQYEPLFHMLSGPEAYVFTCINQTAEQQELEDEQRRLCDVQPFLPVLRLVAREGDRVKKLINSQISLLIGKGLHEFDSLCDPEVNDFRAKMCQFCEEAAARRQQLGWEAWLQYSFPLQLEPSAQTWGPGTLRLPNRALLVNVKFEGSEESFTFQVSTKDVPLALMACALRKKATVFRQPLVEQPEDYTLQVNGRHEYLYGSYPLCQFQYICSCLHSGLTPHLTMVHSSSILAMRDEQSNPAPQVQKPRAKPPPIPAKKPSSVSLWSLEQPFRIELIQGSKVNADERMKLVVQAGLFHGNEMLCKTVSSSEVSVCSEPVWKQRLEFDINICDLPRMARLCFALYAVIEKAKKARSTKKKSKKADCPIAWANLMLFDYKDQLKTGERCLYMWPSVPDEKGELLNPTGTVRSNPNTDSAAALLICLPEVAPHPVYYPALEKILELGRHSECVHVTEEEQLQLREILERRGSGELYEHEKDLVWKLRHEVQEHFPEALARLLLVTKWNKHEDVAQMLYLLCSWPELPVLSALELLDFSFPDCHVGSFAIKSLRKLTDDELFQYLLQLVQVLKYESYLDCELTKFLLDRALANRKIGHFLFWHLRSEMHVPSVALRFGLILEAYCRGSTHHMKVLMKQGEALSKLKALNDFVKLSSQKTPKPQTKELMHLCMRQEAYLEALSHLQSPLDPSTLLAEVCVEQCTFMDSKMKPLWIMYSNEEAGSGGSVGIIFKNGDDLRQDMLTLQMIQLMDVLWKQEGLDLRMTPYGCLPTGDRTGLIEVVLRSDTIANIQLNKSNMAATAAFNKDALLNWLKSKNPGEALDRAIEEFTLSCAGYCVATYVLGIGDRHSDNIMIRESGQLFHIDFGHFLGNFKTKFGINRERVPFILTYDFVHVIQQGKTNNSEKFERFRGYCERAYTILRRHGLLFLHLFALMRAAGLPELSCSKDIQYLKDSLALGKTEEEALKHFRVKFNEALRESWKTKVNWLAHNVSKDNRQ
# PI3K-δ (PI3K(p1108/p857) (h)), sequence (P27986 whole entry partner, the tested form may be a part): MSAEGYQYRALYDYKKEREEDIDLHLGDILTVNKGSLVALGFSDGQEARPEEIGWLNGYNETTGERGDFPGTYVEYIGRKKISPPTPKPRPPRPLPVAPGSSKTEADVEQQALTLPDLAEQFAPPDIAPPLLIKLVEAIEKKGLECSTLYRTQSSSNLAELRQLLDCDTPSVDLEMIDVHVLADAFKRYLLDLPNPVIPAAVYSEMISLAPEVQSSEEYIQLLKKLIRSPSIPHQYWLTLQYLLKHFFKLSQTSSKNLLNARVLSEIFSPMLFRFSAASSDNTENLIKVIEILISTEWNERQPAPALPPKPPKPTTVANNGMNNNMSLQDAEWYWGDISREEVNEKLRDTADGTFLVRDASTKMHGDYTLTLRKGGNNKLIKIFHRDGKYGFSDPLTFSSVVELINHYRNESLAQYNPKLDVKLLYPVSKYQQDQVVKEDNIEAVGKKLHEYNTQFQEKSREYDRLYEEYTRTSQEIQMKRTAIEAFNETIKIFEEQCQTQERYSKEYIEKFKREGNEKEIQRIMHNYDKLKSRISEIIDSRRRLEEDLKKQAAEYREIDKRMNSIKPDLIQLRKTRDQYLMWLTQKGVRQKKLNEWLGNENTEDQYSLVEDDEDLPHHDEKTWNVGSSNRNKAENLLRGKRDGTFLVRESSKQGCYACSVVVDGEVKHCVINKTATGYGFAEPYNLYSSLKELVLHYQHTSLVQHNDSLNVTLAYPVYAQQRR
# Method in brief: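 HTRF read-out (665/620 nm ratio ×10000) used Eu-labelled anti-GST, GST-tagged GRP1 PH domain and streptavidin-allophycocyanin after EDTA/PIP3 stop.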
inhibition at 0.01 µM (DNA-PK(h)) [%],inhibition at 0.01 µM [1] [%],"inhibition at 0.1 µM (DNA-PK(h); compound concentration 0.1 μM, read-out: EXP_VALUE(% Inhibition) DNA-PK(h) 0.1 μM) [%]","inhibition at 0.1 µM ([1]; compound concentration 0.1 μM, read-out: EXP_VALUE(% Inhibition) PI3K-δ 0.1 μM) [%]",SMILES
49,32,–,–,"C[C@H](Nc1ncnc2[nH]ccc(=O)c12)c1c(Cl)c2cccc(-c3ccc4ocnc4c3)c2c(=O)n1-c1ccccc1 [Example 241, (S)-4-((1-(8-(benzo[d]oxazol-5-yl)-4-chloro-1-oxo-2-phenyl-1,2-dihydroisoquinolin-3-yl)ethyl)amino)pyrido[2,3-d]pyrimidin-5(8H)-one]"
65,69,–,–,"Cc1csc(-c2cccc3c(Cl)c([C@H](C)Nc4ncnc5[nH]ccc(=O)c45)n(-c4ccccc4)c(=O)c23)c1 [Example 242, (S)-4-((1-(4-chloro-8-(4-methylthiophen-2-yl)-1-oxo-2-phenyl-1,2-dihydroisoquinolin-3-yl)ethyl)amino)pyrido[2,3-d]pyrimidin-5(8H)-one]"
32,45,–,–,"Cc1ccsc1-c1cccc2c(Cl)c([C@H](C)Nc3ncnc4[nH]ccc(=O)c34)n(-c3ccccc3)c(=O)c12 [Example 243, (S)-4-((1-(4-chloro-8-(3-methylthiophen-2-yl)-1-oxo-2-phenyl-1,2-dihydroisoquinolin-3-yl)ethyl)amino)pyrido[2,3-d]pyrimidin-5(8H)-one]"
7,65,–,–,"Cc1c[nH]nc1-c1cccc2c(Cl)c([C@H](C)Nc3ncnc4[nH]ccc(=O)c34)n(-c3ccccc3)c(=O)c12 [Example 244, (S)-4-((1-(4-chloro-8-(4-methyl-1H-pyrazol-3-yl)-1-oxo-2-phenyl-1,2-dihydroisoquinolin-3-yl)ethyl)amino)pyrido[2,3-d]pyrimidin-5(8H)-one]"
43,52,–,–,"C[C@H](Nc1ncnc2[nH]ccc(=O)c12)c1c(Cl)c2cccc(CN3CCOCC3)c2c(=O)n1-c1ccccc1 [Example 245, (S)-4-((1-(4-chloro-8-(morpholinomethyl)-1-oxo-2-phenyl-1,2-dihydroisoquinolin-3-yl)ethyl)amino)pyrido[2,3-d]pyrimidin-5(8H)-one]"
79,85,–,–,"CNc1ccc(-c2cccc3c(Cl)c([C@H](C)Nc4ncnc5[nH]ccc(=O)c45)n(-c4ccccc4)c(=O)c23)cn1 [Example 246, (S)-4-((1-(4-chloro-8-(6-(methylamino)pyridin-3-yl)-1-oxo-2-phenyl-1,2-dihydroisoquinolin-3-yl)ethyl)amino)pyrido[2,3-d]pyrimidin-5(8H)-one]"
21,75,–,–,"C[C@H](Nc1ncnc2[nH]ccc(=O)c12)c1c(Cl)c2cccc(-c3ccc(OC(F)(F)F)cc3)c2c(=O)n1-c1ccccc1 [Example 247, (S)-4-((1-(4-chloro-1-oxo-2-phenyl-8-(4-(trifluoromethoxy)phenyl)-1,2-dihydroisoquinolin-3-yl)ethyl)amino)pyrido[2,3-d]pyrimidin-5(8H)-one]"
66,99,–,–,"Cc1ccc(-c2cccc3c(Cl)c([C@H](C)Nc4ncnc5[nH]ccc(=O)c45)n(-c4ccccc4)c(=O)c23)c(C)n1 [Example 248, (S)-4-((1-(4-chloro-8-(2,6-dimethylpyridin-3-yl)-1-oxo-2-phenyl-1,2-dihydroisoquinolin-3-yl)ethyl)amino)pyrido[2,3-d]pyrimidin-5(8H)-one]"
11,69,69,98,"C[C@H](Nc1ncnc2[nH]ccc(=O)c12)c1c(Cl)c2cccc(N(C)C)c2c(=O)n1-c1ccccc1 [Example 249, (S)-4-((1-(4-chloro-8-(dimethylamino)-1-oxo-2-phenyl-1,2-dihydroisoquinolin-3-yl)ethyl)amino)pyrido[2,3-d]pyrimidin-5(8H)-one]"

# — patent publication US20230072683A1, “PYRIDO-PYRIMIDIN DERIVATIVES AND PHARMACEUTICAL COMPOSITION, FOR USE IN PREVENTING OR TREATING PI3 KINASE RELATED DISEASES, COMPRISING SAME AS ACTIVE INGREDIENT” (BORYUNG PHARMACEUTICAL CO., LTD, priority 2019, published 2023)
